“Also recorded” adds a separate entry of the source.
Experiments:
Assay type in all cases: cell-based
Gal4-RARβ = test: Transactivation, chimerical receptor Gal4-RARβ (transitory transfection of HeLa); conditions: 10^-6 M; 100% = TTNPB 10^-8 M
[1] = system: RARE, endogenic RAR and RXR receptors, HRL+N lineage; test: HRL+N transactivation (RARE-luciferase, stably transfected HeLa); conditions: for Emax: Homo sapiens, HeLa, read-out: HRL+N transactivation, E max (Table 27)
Description: MCF-7 cells and HeLa are cultivated in DMFM with phenol red to which 5% foetal calf serum is added. The T47-D cells are cultivated in RPMI to which 10% foetal calf serum is added. The experimental tests are carried out in DMEM without phenol red to which foetal calf serum treated with dextran carbon is added at 3%. […] The experiments using the different retinoids are carried out sheltered from the light so as to avoid any isomerisation.
Certain properties of the retinoids have been determined using more developed cellular models. These models consist of cellular lineages transfected in a stable fashion by recombinant plasmids which place the expression of the gene of the luciferase under the control of different nuclear response elements. […] The tests carried out in duplicate are described below for each of these models.
The cellular lineages HRLN and HRL+N allow one to study the activation of an RARE by endogenic receptors using ligands at physiological concentrations. These lineages derive from HeLa cells transfected in a stable fashion by a reporter gene which places the expression of the gene of the luciferase under the control of a nuclear response element RARE (RARE3 -tk-Luc). The HeLa cells express all the known receptors of the retinoic acid (RARα,β,γ and RXRα,β,γ) with a predominance of RARα and RXRα. The response element RARE used for the HRLN cells corresponds to the sequence of the natural gene of the RARβ receptor (GGTTCAnnnnnAGTTCA). The HRL+N cells comprise the sequence GAGTGAnnnnnCGGTGA.
The HRL+N lineage allows one to visualise a co-activation of the RAR and RXR receptors at the level of the RAR-RXR hetero-dimer.

RARγ-ERcassette = test: Transactivation, chimerical receptor RARγ-ERcassette (HeLa); conditions: TTNPB 10^-8 M = 100
Procedure, shortened: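 Chimeric RARα, β or γ retaining A, B, D, E and F regions but carrying the oestrogen receptor C domain drives luciferase through an ERE in transiently transfected HeLa cells. Treatment lasts 16 h.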

[2] = system: A549 human pulmonary cancer cells; test: MTT test, proliferation of A549; conditions: for activity at 100 µM / activity at 1 µM / activity at 0.01 µM: Homo sapiens, 72 h, control = 100%, read-out: level of proliferation; for activity at 100 µM: A549, 10^-4 M; for activity at 1 µM: A549, 10^-6 M; for activity at 0.01 µM: A549, 10^-8 M
[3] = system: human mammary tumoral lineage T-47D; test: Clonogenic test (soft agar), growth of cellular colonies; conditions: T-47D; for activity at 0.01 µM: 10^-8 M; for activity at 0.001 µM: 10^-9 M; for effect on growth of cellular colonies (in words): soft agar
Procedure, shortened: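 T-47D cells of over 90% viability were seeded in 0.3% agar over a 0.5% agar base and kept at 37 °C with 5% CO2 for 21 days after treatment. After staining with MTT (1 mg/ml, at least 3 h), colonies larger than 100 μm² were counted microscopically and expressed as a percentage of control.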

[4] = system: Gal4-RAR (RARα, RARβ, RARγ); test: Chimerical receptors Gal4-RAR, overall profile
[5] = Homo sapiens, T47D, 504 h, 21 days, control = 100%, read-out: mean number of cellular colonies in relation to control

SMILES | GAL4-RAR RARβ transactivation (Gal4-RARβ) [%] | HRL+N transactivation (in words) [1] | Emax [1] [%] | RAR-ERcassette RARγ transactivation (RARγ-ERcassette; 10^-6 M) [%] | RAR-ERcassette RARγ transactivation (RARγ-ERcassette; 10^-7 M) [%] | RAR-ERcassette RARγ transactivation (RARγ-ERcassette; 10^-8 M) [%] | activity at 100 µM [2] [%] | activity at 1 µM [2] [%] | activity at 0.01 µM [2] [%] | activity at 0.1 µM ([3]; Homo sapiens, T47D, 504 h, 10^-7 M, 21 days, control = 100%, read-out: mean number of cellular colonies in relation to control) [%] | activity at 0.01 µM [3, 5] [%] | activity at 0.001 µM [3, 5] [%] | effect on growth of cellular colonies (in words) [3] | Gal-RAR agonist profile (in words) [4] | effect on cellular increase, A549 (in words) ([2]; MTT test) | activity at 0.0001 µM ([3]; Homo sapiens, T47D, 504 h, 10^-10 M, 21 days, control = 100%, read-out: mean number of cellular colonies in relation to control) [%]
C/C(=C/c1ccc2c(c1)C(C)(C)CCC2(C)C)c1ccc(C(=O)O)cn1 [CB38416, (Z) 2-[1-(5,6,7,8-tetrahydro-5,5,8,8-tetramethyl-2-naphthalenyl)-2-propenyl]pyridinyl-5-carboxylic acid] | 51 | bring about a transactivation greater than RAR selective agonists (TTNPB) | 131 | 62 | 14 | 4 | 109 | 105 | 126 | 11.6 ± 1.9 | 15.3 ± 1.7 | 20 ± 0.2 | as active as the reference products CB13407 (9-cis RA) and LGD1069 | partial agonist for RARα and RARβ but complete for RARγ |  | 
C/C(=C/c1ccc2c(c1)C(C)(C)CCC2(C)C)c1ccc(-c2nnn[nH]2)cc1 [CB92834] | 0 | weak transactivation, less than that of TTNPB; also recorded: with a specific RAR agonist induces a stronger transactivation than that observed for each compound tested separately; also recorded: over-activation by CB92834 of the transactivation induced by a selective RAR agonist on the HRL+N lineage | 42 | 0 | 7 | 2 | 14.4 | 109 | 105 |  | 38 ± 2 | 58.9 ± 3.7 | global inhibiting and dose dependent activity as great as that obtained with the best products in the trans series (E) | not RAR agonists | show activity on the increase of these two lineages | 82.5 ± 12
